Reference: patent US6875777B2, “Compounds” (AstraZeneca AB, priority 1999, dated 2005)

Experiments:
[1] = RLM metabolic stability (% remaining); conditions: for RLM 10000 % REM.: 10000 (unit not given); for RLM 100000 % REM.: 100000 (unit not given)
[2] = MLM metabolic stability (% remaining); conditions: for MLM 10000 % REM.: 10000 (unit not given); for MLM 100000 % REM.: 100000 (unit not given)

Row | SMILES | RLM 10000 % REM. [1] | RLM 100000 % REM. [1] | MLM 10000 % REM. [2] | MLM 100000 % REM. [2]
1 | CCN(CC)C(=O)c1ccc(N(c2cccc(O)c2)C2CCN(Cc3ccccc3)CC2)cc1 [Example 1] | 4.333% | 66.125% | 10.4% | 85.2%
2 | CCN(CC)C(=O)c1ccc(N(c2cc(O)ccc2F)C2CCN(Cc3ccccc3)CC2)cc1 [Example 6, N,N-diethyl-4-[(2-fluoro-5-hydroxyphenyl)[1-(phenylmethyl)-4-piperidinyl]amino]-benzamide] | 5.333% | 81.333% | 2% | 69%
3 | CCN(CC)C(=O)c1ccc(N(c2cccc(O)c2)C2CCN(Cc3ccoc3)CC2)cc1 [Example 15, N,N-diethyl-4-[[1-(3-furanylmethyl)-4-piperidinyl](3-hydroxyphenyl)amino]-benzamide] | 8% | 73% | 3.5% | 83.5%
4 | CCN(CC)C(=O)c1ccc(N(c2cccc(O)c2)C2CCN(Cc3ccsc3)CC2)cc1 [Example 16, N,N-diethyl-4-[(3-hydroxyphenyl)[1-(3-thienylmethyl)-4-piperidinyl]amino]-benzamide] | 1.5% | 66.5% | 5% | 83%
5 | CCN(CC)C(=O)c1ccc(N(c2cccc(O)c2)C2CCN(Cc3ccc(I)cc3)CC2)cc1 [Example 19, N,N-diethyl-4-[(3-hydroxyphenyl)[1-[(4-iodophenyl)methyl]-4-piperidinyl]amino]-benzamide] | 0% | 35.667% | 30.667% | 61.667%
6 | CCN(CC)C(=O)c1ccc(N(c2cccc(O)c2)C2CCN(Cc3ccc(Br)cc3)CC2)cc1 [Example 20, N,N-diethyl-4-[[1-[(4-bromophenyl)methyl]-4-piperidinyl](3-hydroxyphenyl)amino]-benzamide] | 4.5% | 51.5% | 30.5% | 81.5%
7 | CCN(CC)C(=O)c1ccc(N(c2cccc(O)c2)C2CCN(Cc3ccc(Cl)cc3)CC2)cc1 [Example 21, N,N-diethyl-4-[[1-[(4-chlorophenyl)methyl]-4-piperidinyl](3-hydroxyphenyl)amino]-benzamide] | 2.333% | 45% | 16.333% | 85%
8 | CCN(CC)C(=O)c1ccc(N(c2cccc(O)c2)C2CCN(Cc3ccc(F)cc3)CC2)cc1 [Example 22, N,N-diethyl-4-[[1-[(4-fluorophenyl)methyl]-4-piperidinyl](3-hydroxyphenyl)amino]-benzamide] | 17% | 63% | 8.5% | 85%
9 | CCN(CC)C(=O)c1ccc(N(c2cccc(O)c2)C2CCN(Cc3ccc(Cl)cc3Cl)CC2)cc1 [Example 23, 4-[[1-[(2,4-dichlorophenyl)methyl]-4-piperidinyl](3-hydroxyphenyl)amino]-N,N-diethyl-benzamide] | 20.5% | 75% | 30.5% | 93%
10 | CCN(CC)C(=O)c1ccc(N(c2cccc(O)c2)C2CCN(Cc3cccc(F)c3)CC2)cc1 [Example 24, N,N-diethyl-4-[[1-[(3-fluorophenyl)methyl]-4-piperidinyl](3-hydroxyphenyl)amino]-benzamide] | 3.5% | 87.5% | 3.5% | 71.5%
11 | CCN(CC)C(=O)c1ccc(N(c2cccc(O)c2)C2CCN(Cc3ccccc3F)CC2)cc1 [Example 25, N,N-diethyl-4-[[1-[(2-fluorophenyl)methyl]-4-piperidinyl](3-hydroxyphenyl)amino]-benzamide] | 4% | 71% | 0% | 71%
12 | CCN(CC)C(=O)c1ccc(N(c2cccc(O)c2)C2CCN(Cc3ccc(C)cc3)CC2)cc1 [Example 26, N,N-diethyl-4-[(3-hydroxyphenyl)[1-[(4-methylphenyl)methyl]-4-piperidinyl]amino]-benzamide] | 3.5% | 63.5% | 31.5% | 86%
13 | CCN(CC)C(=O)c1ccc(N(c2cccc(O)c2)C2CCN(Cc3ccco3)CC2)cc1 [Example 27, N,N-diethyl-4-[[1-(2-furanylmethyl)-4-piperidinyl](3-hydroxyphenyl)amino]-benzamide] | 3.5% | 54.5% | 2% | 65%
14 | CCN(CC)C(=O)c1ccc(N(c2cccc(O)c2)C2CCN(Cc3cccs3)CC2)cc1 [Example 28, N,N-diethyl-4-[(3-hydroxyphenyl)[1-(2-thienylmethyl)-4-piperidinyl]amino]-benzamide] | 1.5% | 52% | 1.5% | 80%
15 | CCN(CC)C(=O)c1ccc(N(c2cccc(O)c2)C2CCN(Cc3ncc[nH]3)CC2)cc1 [Example 29, N,N-diethyl-4-{3-hydroxy[1-(1H-imidazol-2-ylmethyl)-4-piperidinyl]anilino}benzamide] | 36.5% | 74.5% | 6% | 92.5%
16 | CCN(CC)C(=O)c1ccc(N(c2cccc(O)c2)C2CCN(Cc3ccccn3)CC2)cc1 [Example 30, N,N-diethyl-4-{3-hydroxy[1-(2-pyridinylmethyl)-4-piperidinyl]anilino}benzamide] | 31% | 74% | 26% | 82%
